Patent US6706663B2, “Herbicidal 3-heterocyclic substituted benzisothiazole and benzisoxazole compounds” (Wyeth, priority 2000, dated 2004)

Tests used:
[1] = test system: ABUTH (Abutilon theophrasti); assay: Postemergence herbicidal evaluation; format: in vivo, Medic.
Method in brief: (§1)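 Seedlings grown for about two weeks were sprayed postemergence and then kept under standard greenhouse care. Injury was rated visually 4–5 weeks after treatment on a 0–9 scale against untreated controls, and ratings from repeat tests were averaged.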

[2] = test system: AMBEL (Ambrosia artemisifolia); assay: Postemergence herbicidal evaluation; format: in vivo, L.
Method in brief: as §1

[3] = test system: CASOB (Cassia obtusifolia); assay: Postemergence herbicidal evaluation; format: in vivo, L.
Method in brief: as §1

[4] = test system: CHEAL (Chenopodium album); assay: Postemergence herbicidal evaluation; format: in vivo, L.
Method in brief: as §1

GALAP (Galium aparine) [5] = assay: Postemergence herbicidal evaluation; format: in vivo
Method in brief: as §1

[6] = test system: IPOHE (Ipomoea hederacea); assay: Postemergence herbicidal evaluation; format: in vivo, (L.) Jacq.
Method in brief: as §1

SETVI (Setaria viridis) [7] = assay: Postemergence herbicidal evaluation; format: in vivo, (L.) Beau
Method in brief: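 ~2-wk seedlings; spray 0.0040–1.000 kg/ha in 50/50 acetone/water + 0.5% TWEEN 20, 40 psi nozzle. Greenhouse hold; visual 0–9 rating vs control at 4–5 wk; multiple tests averaged.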

ORYSAT (Rice, Tebonnet) [8] = assay: Postemergence herbicidal evaluation; format: in vivo, Oryza sativa, (L.) Tebonnet
Method in brief: as §1

[9] = test system: TRZAWR (Wheat, Winter, cv Riband); assay: Postemergence herbicidal evaluation; format: in vivo, Triticum aestivum
Method in brief: as §1

[10] = test system: AMBEL (Ambrosia artemisifolia); assay: Preemergence herbicidal evaluation; format: in vivo, L.; conditions: preemergence, rated 4-5 weeks after treatment
Method in brief: (§2)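 Test compound is applied in aqueous acetone to cups just after seeding. Cups are watered and maintained on greenhouse benches. Each cup is scored 0–9 by eye relative to a control after four to five weeks.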

[11] = test system: CASOB (Cassia obtusifolia); assay: Preemergence herbicidal evaluation; format: in vivo, L.; conditions: preemergence, rated 4-5 weeks after treatment
Method in brief: as §2

[12] = test system: CHEAL (Chenopodium album); assay: Preemergence herbicidal evaluation; format: in vivo, L.; conditions: preemergence, rated 4-5 weeks after treatment
Method in brief: as §2

GALAP (Galium aparine) [13] = assay: Preemergence herbicidal evaluation; format: in vivo; conditions: preemergence, rated 4-5 weeks after treatment
Method in brief: as §2

[14] = test system: ECHCG (Echinochloa crus-galli); assay: Preemergence herbicidal evaluation; format: in vivo, (L.) Beau; conditions: preemergence, rated 4-5 weeks after treatment
Method in brief: as §2

SETVI (Setaria viridis) [15] = assay: Preemergence herbicidal evaluation; format: in vivo, (L.) Beau; conditions: preemergence, rated 4-5 weeks after treatment
Method in brief: as §2

ORYSAT (Rice, Tebonnet) [16] = assay: Preemergence herbicidal evaluation; format: in vivo, Oryza sativa, (L.) Tebonnet; conditions: preemergence, rated 4-5 weeks after treatment
CYPIR (Cyperus iria) = assay: Flooded paddy, preemergence weed control; format: in vivo; conditions: rated 3-4 weeks after treatment, 0-9 rating scale
Method in brief: (§3)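 In this preemergence paddy assay, weed seeds or organs are sown at up to 0.5 cm in silt loam and covered by 1.5–3 cm of water for the full test period. After treatment the pots are kept in a greenhouse, and herbicidal effect is rated 0-9 visually against a control.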

[17] = test system: CYPSE (Cyperus serotinus); assay: Flooded paddy, preemergence weed control; format: in vivo, Rottb.; conditions: rated 3-4 weeks after treatment, 0-9 rating scale
Method in brief: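 Herbicidal effect was scored visually on a 0–9 scale against an untreated control 3–4 weeks after treatment. Compounds were applied preemergence as 50/50 v/v aqueous/acetone mixtures into flood water (1.5–3 cm deep over silt loam), at roughly 0.0080 to 0.1250 kg/ha active ingredient.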

[18] = test system: MOOVA (Monochoria vaginalis); assay: Flooded paddy, preemergence weed control; format: in vivo, Presl.; conditions: rated 3-4 weeks after treatment, 0-9 rating scale
Method in brief: as §3

[19] = test system: SAGPY (Sagittaria pygmaea); assay: Flooded paddy, preemergence weed control; format: in vivo, L.; conditions: rated 3-4 weeks after treatment, 0-9 rating scale
Method in brief: as §3

## Cn1ccnc1-c1nsc2ccc(-n3c(=O)cc(C(F)(F)F)n(C)c3=O)cc12 [Compound 5, 1-methyl-3-[3-(1-methylimidazol-2-yl)-1,2-benzisothiazol-5-yl]-6-(trifluoromethyl)uracil]
[1]; rate 0.0320 kg/ha
  Postemergence herbicidal rating, ABUTH: 9.0
[1]; rate 0.0620 kg/ha
  Postemergence herbicidal rating, ABUTH: 9.0
[2]; rate 0.0320 kg/ha
  Postemergence herbicidal rating, AMBEL: 2.0
[2]; rate 0.0620 kg/ha
  Postemergence herbicidal rating, AMBEL: 9.0
[3]; rate 0.0320 kg/ha
  Postemergence herbicidal rating, CASOB: 0.0
[3]; rate 0.0620 kg/ha
  Postemergence herbicidal rating, CASOB: 2.0
[4]; rate 0.0320 kg/ha
  Postemergence herbicidal rating, CHEAL: 0.0
[4]; rate 0.0620 kg/ha
  Postemergence herbicidal rating, CHEAL: 2.0
GALAP (Galium aparine) [5]; rate 0.0320 kg/ha
  Postemergence herbicidal rating, GALAP: 0.0
GALAP (Galium aparine) [5]; rate 0.0620 kg/ha
  Postemergence herbicidal rating, GALAP: 4.0
[6]; rate 0.0320 kg/ha
  Postemergence herbicidal rating, IPOHE: 9.0
[6]; rate 0.0620 kg/ha
  Postemergence herbicidal rating, IPOHE: 9.0
SETVI (Setaria viridis) [7]; rate 0.0320 kg/ha
  Postemergence herbicidal rating, SETVI: 0.0
SETVI (Setaria viridis) [7]; rate 0.0620 kg/ha
  Postemergence herbicidal rating, SETVI: 1.0
ORYSAT (Rice, Tebonnet) [8]; rate 0.0320 kg/ha
  Postemergence herbicidal rating, ORYSAT: 2.0
ORYSAT (Rice, Tebonnet) [8]; rate 0.0620 kg/ha
  Postemergence herbicidal rating, ORYSAT: 3.0
[9]; rate 0.0320 kg/ha
  Postemergence herbicidal rating, TRZAWR: 2.5
[9]; rate 0.0620 kg/ha
  Postemergence herbicidal rating, TRZAWR: 3.5
[10]; Rate 0.0620 kg/ha
  AMBEL preemergence herbicidal rating: 8.5
[10]; Rate 0.1250 kg/ha
  AMBEL preemergence herbicidal rating: 9.0
[10]; Rate 0.2500 kg/ha
  AMBEL preemergence herbicidal rating: 9.0
[11]; Rate 0.0620 kg/ha
  CASOB preemergence herbicidal rating: 0.0
[11]; Rate 0.1250 kg/ha
  CASOB preemergence herbicidal rating: 1.0
[11]; Rate 0.2500 kg/ha
  CASOB preemergence herbicidal rating: 5.5
[12]; Rate 0.0620 kg/ha
  CHEAL preemergence herbicidal rating: 9.0
[12]; Rate 0.1250 kg/ha
  CHEAL preemergence herbicidal rating: 9.0
[12]; Rate 0.2500 kg/ha
  CHEAL preemergence herbicidal rating: 9.0
GALAP (Galium aparine) [13]; Rate 0.0620 kg/ha
  GALAP preemergence herbicidal rating: 4.0
GALAP (Galium aparine) [13]; Rate 0.1250 kg/ha
  GALAP preemergence herbicidal rating: 5.0
GALAP (Galium aparine) [13]; Rate 0.2500 kg/ha
  GALAP preemergence herbicidal rating: 7.0
[14]; Rate 0.0620 kg/ha
  ECHCG preemergence herbicidal rating: 2.5
[14]; Rate 0.1250 kg/ha
  ECHCG preemergence herbicidal rating: 8.0
[14]; Rate 0.2500 kg/ha
  ECHCG preemergence herbicidal rating: 9.0
SETVI (Setaria viridis) [15]; Rate 0.0620 kg/ha
  SETVI preemergence herbicidal rating: 9.0
SETVI (Setaria viridis) [15]; Rate 0.1250 kg/ha
  SETVI preemergence herbicidal rating: 9.0
SETVI (Setaria viridis) [15]; Rate 0.2500 kg/ha
  SETVI preemergence herbicidal rating: 9.0
ORYSAT (Rice, Tebonnet) [16]; Rate 0.0620 kg/ha
  ORYSAT preemergence herbicidal rating: 3.0
ORYSAT (Rice, Tebonnet) [16]; Rate 0.1250 kg/ha
  ORYSAT preemergence herbicidal rating: 5.0
ORYSAT (Rice, Tebonnet) [16]; Rate 0.2500 kg/ha
  ORYSAT preemergence herbicidal rating: 7.5
CYPIR (Cyperus iria); rate 0.0320 kg/ha
  herbicidal rating, CYPIR: 0.0
CYPIR (Cyperus iria); rate 0.1250 kg/ha
  herbicidal rating, CYPIR: 7.0
[17]; rate 0.0320 kg/ha
  herbicidal rating, CYPSE: 0.0
[17]; rate 0.1250 kg/ha
  herbicidal rating, CYPSE: 0.0
[18]; rate 0.0320 kg/ha
  herbicidal rating, MOOVA: 2.0
[18]; rate 0.1250 kg/ha
  herbicidal rating, MOOVA: 9.0
[19]; rate 0.0320 kg/ha
  herbicidal rating, SAGPY: 0.0
[19]; rate 0.1250 kg/ha
  herbicidal rating, SAGPY: 0.0
